# Reference: patent US7632829B2, “Diazepan derivatives” (Hoffmann-La Roche Inc., priority 2006, dated 2009)
# pIC50: −log10 of the molar value.
# Target: T1, human chemokine receptor 2 isoform B (Homo sapiens, UniProt P41597)
# T1 construct: host or cells: CHOK1-CCR2B-A5 (CHO-K1)
# T1 sequence (P41597 1-360 isoform P41597-2): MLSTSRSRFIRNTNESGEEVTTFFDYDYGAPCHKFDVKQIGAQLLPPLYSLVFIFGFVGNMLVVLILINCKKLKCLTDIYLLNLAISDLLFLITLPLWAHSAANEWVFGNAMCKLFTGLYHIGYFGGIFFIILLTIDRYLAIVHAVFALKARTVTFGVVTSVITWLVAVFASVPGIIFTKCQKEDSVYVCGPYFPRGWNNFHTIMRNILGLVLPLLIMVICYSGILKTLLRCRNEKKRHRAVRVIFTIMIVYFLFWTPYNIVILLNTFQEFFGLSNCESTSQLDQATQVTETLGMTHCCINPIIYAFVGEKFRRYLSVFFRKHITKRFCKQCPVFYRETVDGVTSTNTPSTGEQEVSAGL
# Test: Calcium mobilization assay (FLIPR, CHOK1-CCR2B-A5 cells, 20 nM MCP-1)
# Type: cell-based
# Details: Ca mobilisation assay, CCR2, antagonist activity vs 20 nM MCP-1
# Method: CHOK1-CCR2B-A5 cells (from Euroscreen) stably overexpressing the human chemokine receptor 2 isoform B were cultured in Nutrient Hams F12 medium supplemented with 5% FBS, 100 U/ml penicillin, 100 μg/ml streptomycin, 400 μg/ml G418 and 5 μg/ml puromycin.
# For the assay cells were grown overnight in 384-well black clear flat bottom polystyrene plates (Costar) at 37° C. at 5% CO2. After washing with DMEM, 20 mM Hepes, 2.5 mM probenecid, 0.1% BSA (DMEM assay buffer) cells were loaded with 4 μM Fluo-4 in the same DMEM assay buffer for 2 hours at 30° C. Excess dye was removed and cells were washed with DMEM assay buffer. 384-well compound plates were prepared with DMEM assay buffer/0.5% DMSO with or without various concentrations of test compounds. Usually compounds were tested for agonist and antagonist activity.
# Test compounds were added to the assay plate and agonist activity was monitored as fluorescence for 80 seconds with a FLIPR (488 nm excitation; 510-570 nm emission; Molecular Devices). After 20-30 min. of incubation at 30° C., 20 nM MCP-1 (R&D; Roche) was added and fluorescence was monitored again for 80 seconds. Increases in intracellular calcium are reported as maximum fluorescence after agonist exposure minus basal fluorescence before exposure. Antagonist activity is indicated as inhibitor concentration required for 50% inhibition of specific calcium increases.
row,Compound,pIC50
1,O=C(/C=C/c1ccc(Cl)c(Cl)c1)N1CCC(=O)N(CCCN2CCC3(CC3)C(O)C2)CC1 (stereo not drawn) [Example 261],8.05
2,CC(C)CN1CCN(CCCN2CCN(C(=O)/C=C/c3ccc(Cl)c(Cl)c3)CCC2=O)CC1 [Example 258],6.43
3,C[C@@H]1CN(CCCCN2CCN(C(=O)/C=C/c3ccc(Cl)c(Cl)c3)CCC2=O)CC[C@@H]1O (racemic) [Example 458],6.83
4,"O=C(/C=C/c1cnc(Cl)c(Cl)c1)N1CCC(=O)N(CCCN2CCC3(CC3)C(O)C2)CC1 (stereo not drawn) [Example 497, 1-[(E)-3-(5,6-Dichloro-pyridin-3-yl)-acryloyl]-4-[3-((-)-4-hydroxy-6-aza-spiro[2.5]oct-6-yl)-propyl]-[1,4]diazepan-5-one]",7.59
5,"O=C(/C=C/c1cccc(Cl)c1)N1CCC(=O)N(CCN2CCC(c3cccc(Cl)c3)CC2)CC1 [Example 34, 1-[(E)-3-(3-Chloro-phenyl)-acryloyl]-4-{2-[4-(3-chloro-phenyl)-piperidin-1-yl]-ethyl}-[1,4]diazepan-5-one]",5.86
6,O=C(/C=C/c1ccc(F)c(Cl)c1)N1CCC(=O)N(CCCCN2CCCC(O)C2)CC1 (racemic) [Example 383],6.70
7,CC1(C)CCN(CCCN2CCN(C(=O)/C=C/c3ccc(Cl)c(Cl)c3)CCC2=O)CC1O (racemic) [Example 274],8.40
8,O=C(/C=C/c1ccc(F)c(Cl)c1)N1CCC(=O)N(CCCN2CCC(O)CC2)CC1 [Example 196],6.06
9,O=C(/C=C/c1ccc(F)c(Cl)c1)N1CCC(=O)N(CCCCN2CC[C@H](O)[C@H](F)C2)CC1 (racemic) [Example 390],5.96
10,"C[C@@H]1[C@H](O)CCCN1CCCN1CCN(C(=O)/C=C/c2ccc(Cl)c(Cl)c2)CCC1=O (racemic) [Example 226, (rac,cis)-1-[(E)-3-(3,4-Dichloro-phenyl)-acryloyl]-4-[3-(3-hydroxy-2-methyl-piperidin-1-yl)-propyl]-[1,4]diazepan-5-one]",6.33
11,COC[C@H]1CCN(CCCCN2CCN(C(=O)/C=C/c3ccc(Cl)c(Cl)c3)CCC2=O)C[C@H]1OC (racemic) [Example 470],7.07
12,"O=C(/C=C/c1ccc(Cl)c(Cl)c1)N1CCC(=O)N(CCCN2CCC(c3ccccc3)CC2)CC1 [Example 45, 1-[(E)-3-(3,4-Dichloro-phenyl)-acryloyl]-4-[3-(4-phenyl-piperidin-1-yl)-propyl]-[1,4]diazepan-5-one]",7.89
13,"O=C(/C=C/c1ccc(Cl)c(F)c1)N1CCC(=O)N(CCCCN2CCC3(CC3)C(O)C2)CC1 (stereo not drawn) [Example 416, 1-[(E)-3-(4-Chloro-3-fluoro-phenyl)-acryloyl]-4-[4-((-)-4-hydroxy-6-aza-spiro[2.5]oct-6-yl)-butyl]-[1,4]diazepan-5-one]",7.96
14,CC1(C)CCN(C[C@H](O)CCN2CCN(C(=O)/C=C/c3ccc(F)c(Cl)c3)CCC2=O)CC1O (stereo partly drawn) [Example 500],6.35
15,O=C(/C=C/c1ccc(Cl)c(Cl)c1)N1CCC(=O)N(CCN[C@@H]2CCCC[C@H]2O)CC1 (racemic) [Example 355],6.01
16,O=C(/C=C/c1ccc(Cl)c(Cl)c1)N1CCC(=O)N(CCCCN2CCC(CO)CC2)CC1 [Example 422],7.15
17,"CC1CN(C(=O)/C=C/c2ccc(Cl)c(Cl)c2)CCN(CCCN2CCCCC2)C1=O (racemic) [Example 187, (rac)-1-[(E)-3-(3,4-Dichloro-phenyl)-acryloyl]-6-methyl-4-(3-piperidin-1-yl-propyl)-[1,4]diazepan-5-one]",6.41
18,O=C(/C=C/c1ccc(Cl)c(Cl)c1)N1CCC(=O)N(CCCCN2CCN(C3CC3)CC2)CC1 [Example 437],6.33
19,"CC1CCCCN1CCCN1CCN(C(=O)/C=C/c2ccc(Cl)c(Cl)c2)CCC1=O (racemic) [Example 62, (+/−)-1-[(E)-3-(3,4-Dichloro-phenyl)-acryloyl]-4-[3-(2-methyl-piperidin-1-yl)-propyl]-[1,4]diazepan-5-one]",6.78
20,"O=C1NCC2(CCN(CCCN3CCN(C(=O)/C=C/c4ccc(Cl)c(Cl)c4)CCC3=O)CC2)O1 [Example 84, 8-(3-{4-[(E)-3-(3,4-Dichloro-phenyl)-acryloyl]-7-oxo-[1,4]diazepan-1-yl}-propyl)-1-oxa-3,8-diaza-spiro[4.5]decan-2-one]",6.65
21,O=C(/C=C/c1ccc(F)c(Cl)c1)N1CCC(=O)N(CCCCN2CC[C@@H](O)[C@H](F)C2)CC1 (racemic) [Example 394],6.26

row,Compound,pIC50
1,O=C(/C=C/c1ccc(Cl)c(Cl)c1)N1CCC(=O)N(CC(O)CN2CCCCC2CO)CC1 (racemic) [Example 290],6.70
2,O=C(/C=C/c1ccc(F)c(Cl)c1)N1CCC(=O)N(CCCCN2CCC(O)C2)CC1 (racemic) [Example 393],6.06
3,"(rac)-1-[(E)-3-(3,4-Dichloro-phenyl)-acryloyl]-4-[4-(3-hydroxy-5-methoxymethyl-piperidin-1-yl)-butyl]-[1,4]diazepan-5-one [Example 490]",7.59
4,O=C(/C=C/c1ccc(Cl)c(Cl)c1)N1CCC(=O)N(CCCN2CCC3(CC3)C(O)C2)CC1 (stereo not drawn) [Example 262],8.40
5,CC1CCCCN1CC(O)CCN1CCN(C(=O)/C=C/c2ccc(Cl)c(Cl)c2)CCC1=O (racemic) [Example 375],6.56
6,CCN(CCO)CCCCN1CCN(C(=O)/C=C/c2ccc(Cl)c(Cl)c2)CCC1=O [Example 461],6.21
7,COC(=O)NC1CCN(CCCN2CCN(C(=O)/C=C/c3ccc(F)c(Cl)c3)CCC2=O)CC1 [Example 201],6.18
8,"O=C(/C=C/c1ccc(Cl)c(Cl)c1)N1CCC(=O)N(CCCN2CC[C@@H](F)[C@H](O)C2)CC1 (racemic) [Example 230, (rac,trans)-1-[(E)-3-(3,4-Dichloro-phenyl)-acryloyl]-4-[3-(4-fluoro-3-hydroxy-piperidin-1-yl)-propyl]-[1,4]diazepan-5-one]",6.67
9,CC1CCC(O)CN1CCCCN1CCN(C(=O)/C=C/c2ccc(Cl)c(Cl)c2)CCC1=O (racemic) [Example 487],7.85
10,CC1(CO)CCN(CCCCN2CCN(C(=O)C=Cc3ccc(Cl)c(F)c3)CCC2=O)CC1O (stereo not drawn) [Example 412],6.47
11,"O=C(/C=C/c1ccc(Cl)c(Cl)c1)N1CCC(=O)N(CCCN2CC[C@H](CO)[C@@H](O)C2)CC1 (racemic) [Example 268, (rac,trans)-1-[(E)-3-(3,4-Dichloro-phenyl)-acryloyl]-4-[3-(3-hydroxy-4-hydroxymethyl-piperidin-1-yl)-propyl]-[1,4]diazepan-5-one]",6.67
12,COC(=O)NC1CCN(CC(O)CCN2CCN(C(=O)/C=C/c3ccc(Cl)c(Cl)c3)CCC2=O)CC1 (racemic) [Example 364],6.27
13,"O=C(/C=C/c1ccc2ccccc2c1)N1CCC(=O)N(CCCN2CCCCC2)CC1 [Example 157, 1-((E)-3-Naphthalen-2-yl-acryloyl)-4-(3-piperidin-1-yl-propyl)-[1,4]diazepan-5-one]",6.15
14,"CC1CCN(CCN2CCN(C(=O)/C=C/c3ccc(Cl)c(Cl)c3)CCC2=O)CC1 [Example 120, 1-[(E)-3-(3,4-Dichloro-phenyl)-acryloyl]-4-[3-(4-methyl-piperidin-1-yl)-ethyl]-[1,4]diazepan-5-one]",5.94
15,NC(=O)COC1CCC(CO)N(CCCCN2CCN(C(=O)/C=C/c3ccc(Cl)c(Cl)c3)CCC2=O)C1 (racemic) [Example 485],7.12
16,"O=C(/C=C/c1ccc(Cl)c(Cl)c1)N1CCC(=O)N(C(CO)CCCN2CCCCC2)CC1 (racemic) [Example 181, (rac)-1-[(E)-3-(3,4-Dichloro-phenyl)-acryloyl]-4-(1-hydroxymethyl-4-piperidin-1-yl-butyl)-[1,4]diazepan-5-one]",8.52
17,CC1(C)CCN(CCCCN2CCN(C(=O)/C=C/c3ccc(Cl)c(Cl)c3)CCC2=O)CC1O (racemic) [Example 481],8.05
18,"C[N+]1(CCCN2CCN(C(=O)/C=C/c3ccc(Cl)c(Cl)c3)CCC2=O)CCC2(CC1)NC(=O)NC2=O (stereo not drawn) [Example 153, 8-(3-{4-[(E)-3-(3,4-Dichloro-phenyl)-acryloyl]-7-oxo-[1,4]diazepan-1-yl}-propyl)-8-methyl-2,4-dioxo-1,3-diaza-8-azonia-spiro[4.5]decane iodide]",6.35
19,O=C(/C=C/c1ccc(F)c(Cl)c1)N1CCC(=O)N(CCCN2CCC[C@@H](O)C2)CC1 [Example 193],6.19
20,"O=C(O)C(CN1CCCCC1)CN1CCN(C(=O)/C=C/c2ccc(Cl)c(Cl)c2)CCC1=O (racemic) [Example 183, Lithium; (rac)-3-{4-[(E)-3-(3,4-dichloro-phenyl)-acryloyl]-7-oxo-[1,4]diazepan-1-yl}-2-piperidin-1-ylmethyl-propionate]",5.91
21,CC1CN(CCCCN2CCN(C(=O)/C=C/c3ccc(F)c(Cl)c3)CCC2=O)CCC1O (racemic) [Example 400],6.58
